Assay results published in publication PMC5371653, “Pharmacological and Biochemical Characterization of TLQP-21 Activation of a Binding Site on CHO Cells” (Frontiers in Pharmacology, 2017).
Read-outs that look alike come from different tables or passages of the source.

Key:
[1] = test system: TLQP-21 binding sites on CHO cell membranes; assay: TLQP-21 binding assay with [125I]-YATL-23 on crude CHO cell membranes; conditions: competition with 1 nM [125I]-YATL-23, competitor 10 pM to 0.1 μM
Protocol: Binding of TLQP-21 to crude membranes (30,000 × g pellet) obtained from CHO cells was carried out using [^125I]-YATL-23 as ligand. YATL-23 was radioiodinated (specific activity, 2000 Ci/mmol) using the lactoperoxidase method ([Muccioli et al., 1998]; [Muccioli et al., 2001]) by Perkin Elmer (Milan, Italy) and purified by reverse phase high-performance liquid chromatography. For the single point binding assay, cell membranes (corresponding to 100 μg membrane protein) were incubated in triplicate at 23°C, unless otherwise noted, for 4 h under constant shaking with 0.5 nM [^125I]-YATL-23 in a final volume of 0.5 ml assay buffer (50 mM Tris, 2.5 mM EGTA, 0.002% bacitracin, 0.1% bovine serum albumin, titrated to a final pH of 7.4 with HCl). Non-specific binding was measured in parallel incubations with 1 μM unlabelled YATL-23 to displace the radioligand. Similar results were obtained using TLQP-21 to displace the radioligand. The binding reaction was terminated by the addition of ice-cold assay buffer, followed by rapid filtration through Whatman GF/B filters as previously reported ([Muccioli et al., 1998]) and the radioactivity bound to membranes was measured by a Packard auto-γ-counter. Specific binding-values were calculated as the difference obtained subtracting non-specific from total binding. Specific binding was expressed as a percentage of the total radioactivity added. […]

[2] = test system: CHO cells; type: cell-based; conditions: for intracellular Ca2+ levels, maximal response (ΔF/F): peptide 1 μM, vs. HBSS, at least five wells
Protocol: CHO cells were plated at 20.000 cells/well into black walled, clear bottom 96-well plate (Corning, Germany) and cultured one day up to 80–90% of confluence. […] TLQP-21, TLQP-62, TLQP-8, HHPD-41, HFHH-10, and LRPS-21 were diluted in HBSS solution and injected into the wells by an automated injector system. […] Depletion of Ca^2+ from the ER leads to Ca^2+ entry from outside the cell by activation of Store-Operated Channels (SOCs).

[3] = test system: CHO cells; conditions: ref Cassina et al., 2013; cited from earlier work
Text: Among several bioactive peptides derived from VGF, TLQP-21 (VGF^556-576) is a 21 amino acid peptide which has been immunopurified from brain tissues ([Bartolomucci et al., 2006]). Despite many efforts to characterize the physiological effects of TLQP-21, little is known about its molecular targets. Nonetheless, adipocytes express a high affinity binding site for TLQP-21 and in these cells TLQP-21 stimulates a pro-lipolytic effect ([Possenti et al., 2012]).

[4] = inhibitor 10 μM, 20 min pretreatment, then 1 μM TLQP-21

Molecule: LRPSHTRPAHQSFARP LHRPA [LRPS-21, scrambled control peptide with the same amino acid residues as TLQP-21]
- inhibition of [125I]-YATL-23 binding to CHO membranes [1]: not inhibited
- intracellular Ca2+ levels, maximal response ([2]; peptide 1 nM–10 μM, TLQP-21 significant (P < 0.05) at 0.1 μM–10 μM, at least six wells, repeated at least three times): did not stimulate
- stimulation of intracellular Ca2+ in CHO cells [3]: did not stimulate

Molecule: COc1ccc2c(c1)CC[C@@H]1[C@@H]2CC[C@]2(C)[C@@H](NCCCCCCN3C(=O)C=CC3=O)CC[C@@H]12 [U73122]
- reduction of TLQP-21 stimulation of intracellular Ca2+ mobilization ([2]; inhibitor 10 μM, 10 min preincubation, then 1 μM TLQP-21): about 82%

Molecule: O=C(O)CN(CCOCCOCCN(CC(=O)O)CC(=O)O)CC(=O)O [EGTA]
- decrement in TLQP-21-mediated intracellular Ca2+ mobilization ([2]; chelator 1 mM, 30 min pretreatment, then 1 μM TLQP-21): ~45%

Molecule: TLQPPASS [TLQP-8, 8 amino acids at the N-terminal of TLQP-21]
- intracellular Ca2+ levels, maximal response (ΔF/F) ([2]; repeated at least three times): slight and non-significant increase

Molecule: C/C=C(/C)C(=O)O[C@H]1C(C)=C2[C@H]([C@@H]1OC(=O)CCCCCCC)[C@@](C)(OC(C)=O)C[C@H](OC(=O)CCC)[C@@]1(O)[C@H]2OC(=O)[C@@]1(C)O [TG, thapsigargin]
- reduction of TLQP-21-mediated increase of intracellular Ca2+ ([2]; inhibitor 2 μM, 20 min preincubation, then 1 μM TLQP-21): 56%

Molecule: COc1ccc(CCCOC(Cn2ccnc2)c2ccc(OC)cc2)cc1 (stereo not shown) [SKF-96365]
- decrement in TLQP-21-mediated intracellular Ca2+ mobilization [2, 4]: about 36%

Molecule: TLQPPASSRRRHFHHALPPARHHPDLEAQARRAQEEADAEERRLQEQEELENYIEHVLLHRP [TLQP-62]
- intracellular Ca2+ levels, maximal response (ΔF/F) ([2]; repeated at least three times): failed to stimulate any significant increase

Molecule: Cyclosporine A [CsA]
- basal levels of intracellular Ca2+ ([2]; 2 μM, before TLQP-21): did not modify
- effect on TLQP-21 Ca2+ stimulation ([2]; inhibitor 2 μM, 15 min preincubation, then 1 μM TLQP-21): did not affect

Molecule: CC(C)C[C@H](NC(=O)[C@@H](N)[C@@H](C)O)C(=O)N[C@@H](CCC(N)=O)C(=O)N1CCC[C@H]1C(=O)N1CCC[C@H]1C(=O)N[C@@H](C)C(=O)N[C@@H](CO)C(=O)N[C@@H](CO)C(=O)N[C@@H](CCCNC(=N)N)C(=O)N[C@@H](CCCNC(=N)N)C(=O)N[C@@H](CCCNC(=N)N)C(=O)N[C@@H](Cc1c[nH]cn1)C(=O)N[C@@H](Cc1ccccc1)C(=O)N[C@@H](Cc1c[nH]cn1)C(=O)N[C@@H](Cc1c[nH]cn1)C(=O)N[C@@H](C)C(=O)N[C@@H](CC(C)C)C(=O)N1CCC[C@H]1C(=O)N1CCC[C@H]1C(=O)N[C@@H](C)C(=O)N[C@@H](CCCNC(=N)N)C(=O)O [TLQP-21]
- EC50 ([2]; CHO cells, stated as 1 μM being close to the EC50, read-out: EC50 of intracellular Ca2+ mobilization): ~1 µM

Molecule: HFHHALPPAR [HFHH-10, 10 amino acids at the C-terminal of TLQP-21]
- intracellular Ca2+ levels, maximal response (ΔF/F) ([2]; repeated at least three times): effectively stimulated

Molecule: Cc1nnsc1C(=O)Nc1ccc(-n2nc(C(F)(F)F)cc2C(F)(F)F)cc1 [YM-58483]
- decrement in TLQP-21-mediated intracellular Ca2+ mobilization [2, 4]: ~27%

Molecule: HHPDLEAQARRAQEEADAEERRLQEQEELENYIEHVLLHRP [HHPD-41, VGF-derived peptide from processing of TLQP-62]
- intracellular Ca2+ levels, maximal response (ΔF/F) ([2]; repeated at least three times): ineffective

Molecule: NCCOB(c1ccccc1)c1ccccc1 [2-APB, 2-Aminoethyl diphenylborinate]
- decrement of TLQP-21 intracellular Ca2+ mobilization ([2]; inhibitor 75 μM, 15 min preincubation, then 1 μM TLQP-21): about 79%
